Results from PMC7714403 (JCI Insight, 2020).

Columns and labels:
FGFR1 = molecular target: T1, FGFR1 (Homo sapiens, UniProt P11362); assay: KdELECT binding assay
T1 construct: purchased Eurofins DiscoverX

MOLM13-Luc+ cells = assay: MOLM13-Luc+ xenograft model; format: in vivo, NSG mice; settings: 3 weeks
Description: Engraftment and growth of leukemic cells were monitored by noninvasive bioluminescence imaging in cell line xenograft models, as previously done ([47]). Details on the cell engraftment and dosing in mouse models are provided in the Supplemental Methods.
Cell viability of primary samples
HS5-GFP human bone marrow stromal cells were plated and cultured for 72 hours to near confluence.
MOLM13 cells were then seeded onto HS5-GFP cells to establish a co-culture. Twenty-four hours later, cells were treated with increasing concentrations of drug for an additional 72 hours. MOLM13 and HS5-GFP cells were then separated and MTT assay s were performed for cell viability assessment of each cell population.
For murine or human primary AML cells, 100,000 cells/well were plated in a 96-well plate and treated with increasing concentrations of drug. Cell viability, via trypan blue, was measured every 24 hours. If the viability fell below 50% or at 72 hours of treatment, whichever came earlier, cell viability of each plate was measured via CellTiter-Glo. Primary human AML cells were obtained from the OSUCCC Leukemia Tissue Bank Shared […]
Primary AML samples were analyzed by targeted gene sequencing of 80 genes, as previously described (1). Samples were pooled and analyzed on a MiSeq system using the Illuminia MiSeq Reagent Kit v3. […]
Luc+ or MOLM13-Res -Luc+ cells, 0.5 million OCI-AML3 -Luc+ cells, and 10,000 Ba/F3-FLT3-ITD/F691L-GFP+ cells. Weekly tumor engraftment of cell line xenograft models were assessed after injection of D-luciferin (150mg/kg i.p.; Gold Biotechnology, Inc, St. Louis, MO) on Xenogen IVIS-200 imaging system (Perkin Elmer, Waltham, MA) or GFP monitoring by peripheral blood via BD LSR II flow cytometer (BD Biosciences, San Jose, CA). Signal intensity was analyzed using Living Image Software (PerkinElmer) or FlowJo v10.0.08 software (FlowJo, LLC, Ashland, OR). […]
At indicated time points, cells were collected and washed with PBS. CD11b expression was measured using anti-CD11b -APC antibody (BioLegend, San Diego, CA). […]

CaMK1d = CaMK1d (Homo sapiens, UniProt Q8IU85); assay: KiNativ, OCI cells live cell; format: cell-based; settings: 2 h
CaMK1d, sequence (Q8IU85 whole entry): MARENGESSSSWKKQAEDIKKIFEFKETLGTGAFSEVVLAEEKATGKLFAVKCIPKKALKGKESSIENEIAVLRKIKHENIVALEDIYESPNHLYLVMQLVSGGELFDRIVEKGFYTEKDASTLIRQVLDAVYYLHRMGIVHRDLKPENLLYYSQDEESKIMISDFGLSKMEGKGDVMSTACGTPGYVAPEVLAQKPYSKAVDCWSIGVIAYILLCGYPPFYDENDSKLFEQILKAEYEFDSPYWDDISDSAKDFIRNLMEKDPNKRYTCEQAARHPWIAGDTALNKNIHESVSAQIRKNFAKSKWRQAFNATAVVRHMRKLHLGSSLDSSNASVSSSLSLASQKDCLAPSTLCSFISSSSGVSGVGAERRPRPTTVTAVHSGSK

MARK2, MARK3 = assay: KiNativ, OCI cells live cell; format: cell-based, human; settings: labeling site Lys2, peptide DLKAENLLLDADMNIK
p38b = p38b (Homo sapiens, UniProt Q15759); assay: KiNativ, OCI cells live cell; format: cell-based; settings: 2 h, labeling site Other, peptide […]
p38b, sequence (Q15759 whole entry): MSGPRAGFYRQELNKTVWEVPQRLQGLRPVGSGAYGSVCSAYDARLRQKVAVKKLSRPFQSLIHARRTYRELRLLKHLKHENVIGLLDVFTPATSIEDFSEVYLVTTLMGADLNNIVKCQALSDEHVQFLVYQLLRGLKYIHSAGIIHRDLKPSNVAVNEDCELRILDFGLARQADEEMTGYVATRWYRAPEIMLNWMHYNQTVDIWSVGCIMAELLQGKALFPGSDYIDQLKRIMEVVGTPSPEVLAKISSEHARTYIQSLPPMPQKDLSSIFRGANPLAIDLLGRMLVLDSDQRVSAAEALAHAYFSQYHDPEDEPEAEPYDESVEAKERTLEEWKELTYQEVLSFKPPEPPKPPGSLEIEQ

PLK1 = PLK1 (Homo sapiens, UniProt P53350); assay: KiNativ, OCI cells live cell; format: cell-based; settings: 2 h
PLK1, sequence (P53350 whole entry): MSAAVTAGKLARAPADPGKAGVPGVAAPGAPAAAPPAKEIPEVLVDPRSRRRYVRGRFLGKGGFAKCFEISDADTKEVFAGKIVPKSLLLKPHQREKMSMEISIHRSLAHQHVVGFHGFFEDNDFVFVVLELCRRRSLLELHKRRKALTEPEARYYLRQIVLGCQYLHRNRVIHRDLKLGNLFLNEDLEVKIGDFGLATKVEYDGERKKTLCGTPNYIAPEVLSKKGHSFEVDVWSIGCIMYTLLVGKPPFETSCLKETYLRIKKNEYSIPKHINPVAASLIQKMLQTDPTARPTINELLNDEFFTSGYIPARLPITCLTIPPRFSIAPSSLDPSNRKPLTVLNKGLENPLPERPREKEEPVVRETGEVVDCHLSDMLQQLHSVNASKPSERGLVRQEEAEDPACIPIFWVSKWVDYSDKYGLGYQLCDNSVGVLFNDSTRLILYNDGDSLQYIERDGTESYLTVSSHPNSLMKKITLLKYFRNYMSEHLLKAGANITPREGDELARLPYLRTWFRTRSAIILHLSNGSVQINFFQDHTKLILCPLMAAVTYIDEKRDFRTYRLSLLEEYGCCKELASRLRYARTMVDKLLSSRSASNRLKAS

ROCK1, ROCK2 = assay: KiNativ, OCI cells live cell; format: cell-based, human
SRPK1, SRPK2 = assay: KiNativ, OCI cells live cell; format: cell-based, human; settings: labeling site Lys1, peptide FVAMKVVK
TAO2 = TAO2 (Homo sapiens, UniProt Q9UL54); assay: KiNativ, OCI cells live cell; format: cell-based; settings: 2 h, labeling site Lys2, peptide […]
TAO2, sequence (Q9UL54 whole entry): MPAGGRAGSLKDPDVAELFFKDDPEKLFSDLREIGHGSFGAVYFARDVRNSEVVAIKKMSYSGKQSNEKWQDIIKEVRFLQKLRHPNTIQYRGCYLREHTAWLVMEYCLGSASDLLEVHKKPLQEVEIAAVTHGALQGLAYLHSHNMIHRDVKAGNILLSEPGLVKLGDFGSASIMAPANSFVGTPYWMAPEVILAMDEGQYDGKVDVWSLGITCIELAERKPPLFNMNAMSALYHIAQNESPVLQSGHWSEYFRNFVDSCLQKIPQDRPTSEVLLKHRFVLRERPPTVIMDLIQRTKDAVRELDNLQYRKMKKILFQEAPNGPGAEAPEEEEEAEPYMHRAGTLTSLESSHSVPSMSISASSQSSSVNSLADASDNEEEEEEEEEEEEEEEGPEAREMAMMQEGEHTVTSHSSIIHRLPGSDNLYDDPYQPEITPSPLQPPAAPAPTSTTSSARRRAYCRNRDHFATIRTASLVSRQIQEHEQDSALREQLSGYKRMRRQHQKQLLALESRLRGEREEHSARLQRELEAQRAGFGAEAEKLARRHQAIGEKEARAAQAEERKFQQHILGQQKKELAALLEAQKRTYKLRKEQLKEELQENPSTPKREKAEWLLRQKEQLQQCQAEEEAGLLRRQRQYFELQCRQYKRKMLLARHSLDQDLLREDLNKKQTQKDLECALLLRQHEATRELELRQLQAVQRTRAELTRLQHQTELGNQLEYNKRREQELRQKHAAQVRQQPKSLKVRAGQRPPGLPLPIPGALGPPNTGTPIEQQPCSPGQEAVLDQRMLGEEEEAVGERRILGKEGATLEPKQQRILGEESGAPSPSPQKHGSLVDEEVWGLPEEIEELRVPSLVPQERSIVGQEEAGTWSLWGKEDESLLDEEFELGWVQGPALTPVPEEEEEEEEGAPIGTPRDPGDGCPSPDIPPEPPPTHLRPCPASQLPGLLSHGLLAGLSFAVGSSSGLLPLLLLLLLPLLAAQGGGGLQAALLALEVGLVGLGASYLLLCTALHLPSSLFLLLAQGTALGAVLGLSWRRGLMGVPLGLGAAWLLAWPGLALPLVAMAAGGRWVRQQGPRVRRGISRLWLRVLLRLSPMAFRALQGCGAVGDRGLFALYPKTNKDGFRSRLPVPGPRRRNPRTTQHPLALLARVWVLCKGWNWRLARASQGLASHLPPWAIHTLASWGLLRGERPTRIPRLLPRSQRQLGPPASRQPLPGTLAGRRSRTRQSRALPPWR

40 kinases = settings: 200 nM; 11 of 40 kinases; cited from earlier work

T1 sequence (P11362 22-822): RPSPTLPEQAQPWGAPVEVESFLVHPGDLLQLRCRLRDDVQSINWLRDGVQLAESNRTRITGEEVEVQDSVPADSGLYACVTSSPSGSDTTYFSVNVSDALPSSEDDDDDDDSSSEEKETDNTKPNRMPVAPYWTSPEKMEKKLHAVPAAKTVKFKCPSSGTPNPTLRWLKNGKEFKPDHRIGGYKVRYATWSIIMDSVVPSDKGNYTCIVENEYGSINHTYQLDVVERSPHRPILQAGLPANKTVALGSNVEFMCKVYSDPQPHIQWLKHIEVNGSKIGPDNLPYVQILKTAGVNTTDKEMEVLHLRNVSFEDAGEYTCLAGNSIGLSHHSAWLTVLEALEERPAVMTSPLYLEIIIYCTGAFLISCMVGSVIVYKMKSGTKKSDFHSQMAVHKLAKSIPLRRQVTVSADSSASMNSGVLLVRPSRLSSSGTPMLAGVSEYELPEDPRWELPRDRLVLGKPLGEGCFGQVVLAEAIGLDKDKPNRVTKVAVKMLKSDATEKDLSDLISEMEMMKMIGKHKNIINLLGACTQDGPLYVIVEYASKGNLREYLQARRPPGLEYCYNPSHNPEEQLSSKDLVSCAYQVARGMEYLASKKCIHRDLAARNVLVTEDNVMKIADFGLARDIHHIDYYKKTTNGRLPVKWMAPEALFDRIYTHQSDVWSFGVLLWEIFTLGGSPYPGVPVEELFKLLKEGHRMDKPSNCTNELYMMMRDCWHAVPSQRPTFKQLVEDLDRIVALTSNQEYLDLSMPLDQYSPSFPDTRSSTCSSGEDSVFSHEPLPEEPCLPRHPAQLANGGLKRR

## CN1CCN(Cc2ccc(Nc3ncc(Cl)c(Nc4ccccc4S(=O)(=O)N(C)C)n3)cc2)CC1 [TP-0903]
FGFR1
  Kd: 21 nM
MOLM13-Luc+ cells; 60 mg/kg 5 days a week
  Survival prolonged compared with vehicle: 13 days
MOLM13-Luc+ cells; 60 mg/kg once daily continuously
  Survival prolonged compared with vehicle: 17 days
MOLM13-Luc+ cells; 60 mg/kg
  Leukemia outgrowth (bioluminescence): suppressed leukemia outgrowth
CaMK1d; labeling site Lys1, peptide LFAVKCIPK
  inhibition at 0.1 µM: 13%
CaMK1d; labeling site Lys2, peptide DLKPENLLYYSQDEESK
  inhibition at 0.1 µM: 8.8%
MARK2, MARK3
  Inhibition: 50.8%
p38b
  inhibition at 0.1 µM: -9.9%
PLK1; labeling site Lys1, peptide CFEISDADTKEVFAGKIVPK
  inhibition at 0.1 µM: -5%
PLK1; labeling site Lys2, peptide DLKLGNLFLNEDLEVK
  inhibition at 0.1 µM: -4.3%
ROCK1, ROCK2; labeling site Lys1, peptide VYAMKLLSK
  Inhibition: -8.5%
ROCK1, ROCK2; labeling site Lys2, peptide DVKPDNMLLDK
  Inhibition: -30.5%
SRPK1, SRPK2
  Inhibition: -36.9%
TAO2
  inhibition at 0.1 µM: 73.7%
40 kinases
  Inhibition of kinases: > 50%
